Patent publication US20070167631A1, “Novel herbicides” (priority 2003, published 2007)

Assays:
Format in all cases: in vivo
[1] = system: Abutilon; test: Pre-emergence herbicidal action (Example B1); details: 250 g/ha, after 4 weeks, rating scale 10=total damage, 0=no action
Experimental: (§1) Monocotyledonous and dicotyledonous test plants are sown in standard soil in pots or seed trays. Immediately after sowing, the test compounds, in the form of an aqueous suspension (prepared from a wettable powder (Example F3, b) according to WO 97/34485) or in the form of an emulsion (prepared from an emulsifiable concentrate (Example F1, c) according to WO 97/34485), are applied by spraying in a concentration of 250 g/ha. The test plants are then grown in a greenhouse under optimum conditions. After a test duration of 4 weeks, the test is evaluated in accordance with a scale of eleven ratings (10=total damage, 0=no action). Ratings of from 10 to 7 (especially from 10 to 8) indicate very good to good herbicidal action.

[2] = system: Amaranthus; test: Pre-emergence herbicidal action (Example B1); details: 250 g/ha, after 4 weeks, rating scale 10=total damage, 0=no action
Experimental: as §1

[3] = system: Chenopodium; test: Pre-emergence herbicidal action (Example B1); details: 250 g/ha, after 4 weeks, rating scale 10=total damage, 0=no action
Experimental: as §1

[4] = system: Digitaria; test: Pre-emergence herbicidal action (Example B1); details: 250 g/ha, after 4 weeks, rating scale 10=total damage, 0=no action
Experimental: as §1

[5] = system: Echinochloa; test: Pre-emergence herbicidal action (Example B1); details: 250 g/ha, after 4 weeks, rating scale 10=total damage, 0=no action
Experimental: as §1

[6] = system: Panicum; test: Pre-emergence herbicidal action (Example B1); details: 250 g/ha, after 4 weeks, rating scale 10=total damage, 0=no action
Experimental: as §1

[7] = system: Scirpus; test: Pre-emergence herbicidal action (Example B1); details: 250 g/ha, after 4 weeks, rating scale 10=total damage, 0=no action
Experimental: as §1

[8] = system: Amaranthus; test: Post-emergence herbicidal action (Example B2); details: 250 g/ha, after about 18 days, rating scale 10=total damage, 0=no action
Description: (§2) Monocotyledonous and dicotyledonous test plants are cultivated in a greenhouse in standard soil in plastic pots and, at the 4- to 6-leaf stage, are sprayed with an aqueous suspension of the test compounds of formula I prepared from a 25% wettable powder (Example F3, b) according to WO 97/34485) or with an emulsion of the test compounds of formula I prepared from a 25% emulsifiable concentrate (Example F1, c) according to WO 97/34485), corresponding to concentrations of 125 and 250 g of active ingredient per hectare (500 litres of water per ha). The test plants are then grown on in the greenhouse under optimum conditions. After a test duration of about 18 days, the test is evaluated in accordance with a scale of eleven ratings (10=total damage, 0=no action). Ratings of from 10 to 7 (especially from 10 to 8) indicate very good to good herbicidal action.

[9] = system: Chenopodium; test: Post-emergence herbicidal action (Example B2); details: 250 g/ha, after about 18 days, rating scale 10=total damage, 0=no action
Description: as §2

[10] = system: Echinochloa; test: Post-emergence herbicidal action (Example B2); details: 250 g/ha, after about 18 days, rating scale 10=total damage, 0=no action
Description: as §2

[11] = system: Euphorbia; test: Post-emergence herbicidal action (Example B2); details: 250 g/ha, after about 18 days, rating scale 10=total damage, 0=no action
Description: as §2

[12] = system: Panicum; test: Post-emergence herbicidal action (Example B2); details: 250 g/ha, after about 18 days, rating scale 10=total damage, 0=no action
Description: as §2

[13] = system: Stellaria; test: Post-emergence herbicidal action (Example B2); details: 250 g/ha, after about 18 days, rating scale 10=total damage, 0=no action
Description: as §2

[14] = system: Xanthium; test: Post-emergence herbicidal action (Example B2); details: 250 g/ha, after about 18 days, rating scale 10=total damage, 0=no action
Description: as §2

SMILES | Pre-emergence action: Abutilon [1] | Pre-emergence action: Amaranthus [2] | Pre-emergence action: Chenopodium [3] | Pre-emergence action: Digitaria [4] | Pre-emergence action: Echinochloa [5] | Pre-emergence action: Panicum [6] | Pre-emergence action: Scirpus [7] | Post-emergence action: Amaranthus [8] | Post-emergence action: Chenopodium [9] | Post-emergence action: Echinochloa [10] | Post-emergence action: Euphorbia [11] | Post-emergence action: Panicum [12] | Post-emergence action: Stellaria [13] | Post-emergence action: Xanthium [14]
COC(COc1nc(C(=O)C2=C(O)CCCC2=O)ccc1C(F)(F)F)OC [Compound 1.012] | 10 | 5 | 0 | 9 | 5 | 10 | 7 | 9 | 8 | 8 | 9 | 7 | 7 | 8
CC1CN(c2nc(C(=O)C3=C(O)CCCC3=O)ccc2C(F)(F)F)CC(C)O1 (stereo not drawn) [Compound 1.075] | 9 | 10 | 9 | 10 | 10 | 10 | 7 | 10 | 10 | 8 | 8 | 10 | 8 | 7
O=C1CCCC(O)=C1C(=O)c1ccc(C(F)(F)F)c(N2CCSCC2)n1 [Compound 1.079] | 10 | 10 | 9 | 10 | 10 | 10 | 4 | 8 | 10 | 7 | 8 | 3 | 10 | 7
COCCOCc1nc(C(=O)C2=C(O)CCCC2=O)ccc1C(F)(F)F [Compound 1.126] | 10 | 10 | 10 | 6 | 2 | 9 | 8 | 8 | 8 | 7 | 8 | 7 | 8 | 8
CC1(C)C(=O)C(C(=O)c2ccc(C(F)(F)F)c(OC3CCOC3)n2)=C(O)C(C)(C)C1=O (stereo not drawn) [Compound 2.021] | 9 | 7 | 9 | 3 | 0 | 9 | 7 | 9 | 8 | 9 | 9 | 9 | 7 | 8
CN(C)c1nc(C(=O)C2=C(O)C(C)(C)C(=O)C(C)(C)C2=O)ccc1C(F)(F)F [Compound 2.059] | 10 | 7 | 9 | 7 | 8 | 7 | – | 7 | 10 | 8 | 6 | 5 | 8 | 7
CC1(C)C(=O)C(C(=O)c2ccc(C(F)(F)F)c(N3CCOCC3)n2)=C(O)C(C)(C)C1=O [Compound 2.073] | 9 | 9 | 9 | 7 | 9 | 10 | 4 | 9 | 8 | 9 | 9 | 9 | 7 | 9
CC(=O)N(C)c1nc(C(=O)C2=C(O)C(C)(C)C(=O)C(C)(C)C2=O)ccc1C(F)(F)F [Compound 2.088] | 9 | – | 7 | 9 | 7 | 9 | 0 | – | – | – | – | – | – | –
CCC(=O)N(C)c1nc(C(=O)C2=C(O)C(C)(C)C(=O)C(C)(C)C2=O)ccc1C(F)(F)F [Compound 2.089] | 9 | 8 | 0 | 8 | 8 | 9 | – | 0 | 9 | 7 | 8 | 8 | 8 | 7
Cc1nc(C(=O)C2=C(O)C(C)(C)C(=O)C(C)(C)C2=O)ccc1C(F)(F)F [Compound 2.203] | 10 | 9 | – | 5 | 9 | 6 | 8 | 6 | 6 | 9 | 9 | 9 | 9 | 9
